Laboratory results reported in patent US5929124A, “Antimicrobial diterpenes” (priority 1997, dated 1999).
≈ marks a conversion by molar mass, not a printed value. Like-named read-outs stand apart in the source and are kept apart here.

What was measured:
[1] = test system: T. glabrata; experiment: Inhibition of Candida spp. culture (broth microdilution, XTT); format: cell-based, Torulopsis (Candida) glabrata (strain ATCC #6258); conditions: Nakaseomyces glabratus, 22 hours at 35° C.
Procedure: (§1) Formulae (i) was isolated as described in Example 1. Plant material was collected in Zimbabwe. A voucher specimen is deposited at the Institute of Pharmacognosy and Phytochemistry, University of Lausanne, Lausanne, Switzerland. Antimicrobial assays are performed by a modification of the broth microdilution susceptibility assay using the tetrazolium salt XTT (Examples 2-6, see summary of results in Table 1 below).
(§2) Candida albicans (strain ATCC #90028), Candida krusei (strain ATCC #90030), and Torulopsis (Candida) glabrata (strain ATCC #6258) were subcultured from cryopreserved stocks onto sabourand dextrose agar plates. Blastoconidia were suspended into RPMI-MOPS (media) and inoculated (500 CFW/well) into 96-well plates containing test compounds in a final volume of 100 μL/well. After 22 hours at 35° C., 25 μL of XTT (2,3-bis(2-methoxy-4-nitro-5-sulfophenyl)-5-[(phenylamino)carbonyl]-2H-tetrazolium hydroxide), (100 μg/mL) with PMS (phenazine methyl sulfate, 5 μM) were added to each well, followed by 2 hours of shaking. Growth was assessed spectrophotometrically by measuring the appearance of soluble formazan stain at 450 nm using an Emax microplate reader.

[2] = Vero cell proliferation; format: cell-based; conditions: monkey, vero cells; read-out: IC50 (Vero cell proliferation)
Text: Formula (ii) compounds are those compounds of formula (I) wherein R13 is --O--bonded to R14 and R14 is --CHORa --, Ra being hydrogen, C1-4 alkyl, or formula (a). Formula (ii) compounds may be obtained according to Example 7. […] In general, inhibition of a microbial infection means inhibiting microbial growth, relative to an untreated control, by at least 30%, and preferably by 50% or 75%. Cytotoxicity assays utilized the same dye as a marker of cell viability.

[3] = test system: C. krusei; experiment: Inhibition of Candida spp. culture (broth microdilution, XTT); format: cell-based, Candida krusei (strain ATCC #90030); conditions: Pichia kudriavzevii, 22 hours at 35° C.
Procedure: as §1, §2

[4] = test system: Trichophyton mentagrophytes; experiment: Inhibition of dermatophytes; format: cell-based; conditions: T. mentagrophytes, 96 hours, 13 isolates
Procedure: (§3) The in vitro activity of formula (I) against the dermatophytes Trichophyton rubrum, Trichophyton mentagrophytes, and Epidermophyton floccosum was measured. The data were collected after incubating for 96 hours.

[5] = test system: Epidermophyton floccosum; experiment: Inhibition of dermatophytes; format: cell-based; conditions: E. floccosum, 96 hours, 1 isolate
Procedure: as §3

[6] = test system: Trichophyton rubrum; experiment: Inhibition of dermatophytes; format: cell-based; conditions: T. rubrum, 96 hours, 10 isolates
Procedure: as §3

[7] = test system: C. albicans; experiment: Inhibition of Candida spp. culture (broth microdilution, XTT); format: cell-based, Candida albicans (strain ATCC #90028); conditions: for minimum inhibitory concentration (MIC) for known antifungal agents: assay validation, result in words
Procedure: as §1, §2

[8] = test system: S. aureus; experiment: Inhibition of Staphylococcus aureus culture; format: cell-based; conditions: 24 hours at 35° C.
Procedure: as §1
Strains of Staphylococcus aureus were subcultured from cryopreserved stocks onto sheep blood agar plates (methicillin-sensitive reference strain ATCC #29213. Methicillin-resistant (MRSA) clinical isolate was obtained from Dr. Gary Doern, Director of Clinical Microbiology, University of Massachusetts Medical Center, Worcester, Mass.). Bacteria were suspended in Mueller Hinton broth and inoculated (5×10^4 CFU/well) into 96-well plates containing test compounds in a final volume of 100 μL/well. After 24 hours at 35° C., plates were shaken for 1 minute and turbidity was read manually at 650 nm using a Emax microplate reader (Molecular Devices, Sunnyvale, Calif. The MIC values of vancomycin and gentamicin in this screening assay are determined to be approximately 1 μg/mL and 0.6 μg/mL, respectively, well within the reported ranges (National Committee on Clinical Laboratory Standards Vol. 14, No. 16, 1994, Table 3).

[9] = test system: A. fumigatus; experiment: Inhibition of Aspergillus spp. culture (broth microdilution, XTT); format: cell-based, Aspergillus fumigatus (strain ATCC#8001); conditions: 48 hours at 37° C.
Procedure: as §1
Aspergillus fumigatus (strain ATCC#8001) was subcultured from a refrigerated potato dextrose agar slant (immersed in mineral oil) onto a fresh potato dextrose agar slant. After 72 hours of incubation at 37° C., the slants were filled with 7 mL sterile, cold, distilled water and put on ice for 2 hours. After disrupting the tissue, spores were filtered through sterile gauze using a 30 cc syringe. The resulting mixture was centrifuged for 10 minutes at 2,000 rpm. The supernatant was discarded and the pellet was resuspended in 5 mL sterile, distilled water. […] Growth was assessed spectrophotometrically by measuring the appearance of soluble formazan stain at 450/650 nm using an Emax micro plate reader. Validation of the assay was confirmed by determination of the A. fumigatus minimum inhibitory concentration (MIC) for amphotericin B. MICs were also scored visually.

[10] = test system: Candida albicans strain # 64; experiment: In vivo efficacy against fluconazole-sensitive candidiasis in mice; parameters: species or system ICR mice infected with Candida albicans
Procedure: Immunocompetent mice (ICR, Sprague-Dawley, Indianapolis, IN) were infected with a pathogenic strain (# 64) of Candida albicans which is sensitive to fluconazole. After 24 hours, dissemination of infection was shown by organ colony counts (kidney, spleen, and liver) greater than 10^5 CFU. Treatment began 24 hours after infection with the indicated dosage once a day for 10 days. One group received 20 mg/kg of the compound administered via oral gavage in 0.1 mL. The test compound was formulated in 40% polyethyleneglycol (MW 400). Another group received 40 mg/kg of th compound, administered as above. A third group received polyethylene glycol, and the last group received fluconazole dosed orally at 40 mg/kg twice a day.
After 30 days the percent survival in the group treated with fluconazole and the group treated with test compound (40 mg per kg body weight, twice a day) was measured. In addition, the organ fungal load was measured at days 1, 10, and 30.

[11] = Candida albicans, 22 hours at 35° C.
[12] = Staphylococcus aureus, read-out: MIC

Q: Which IC50 [1] does the source give for `CC1=C(CCO)C(=O)C(O)=C2C1=CC(=O)[C@@H]1C(C)(C)CCC[C@@]21C` (relative stereo) [Formula (i), (4bR*,8aR*)-4b,5,6,7,8,8a-hexahydro-4-hydroxy-4b,8,8,1-tetramethyl-2-(2-hydroxy-ethyl) -3,9-phenanthrenedione] here?
A: 0.44 µg/mL

Q: And the MIC [1]?
A: 1.65 µg/mL

Q: And the CC50 [2]?
A: 12.7 µg/mL

Q: What about the IC50 [3] of the same compound?
A: 0.55 µg/mL

Q: And the MIC [3]?
A: 1.56 µg/mL

Q: What about the MIC ([4]; read-out: MIC range) of the same compound?
A: 0.5 to 8 µg/mL

Q: And the MIC ([4]; read-out: average MIC)?
A: 2.7 µg/mL

Q: What about the MIC [5] of the same compound?
A: 4 µg/mL

Q: And the MIC ([6]; read-out: MIC range)?
A: 2 to 8 µg/mL

Q: What about the MIC ([6]; read-out: average MIC) of the same compound?
A: 5 µg/mL

Q: And the IC50 [7, 11]?
A: 0.12 µg/mL

Q: And the MIC [7, 11]?
A: 0.78 µg/mL

Q: What about the MIC [8, 12] of the same compound?
A: 1.56 µg/mL

Q: What about the IC50 [9] of the same compound?
A: 6.49 µg/mL

Q: And the MIC [9]?
A: 6.25 µg/mL

Q: With `CC1=C(CCO)C(=O)C(O)=C2C1=CC(=O)[C@H]1C(C)(C)CCC[C@]21C` (relative stereo) [test compound] as the compound, how does the “dose response of the effect” value ([10]; 20 and 40 mg/kg oral gavage) read?
A: dose-responsive

Q: And the “fungal organ burdens in the kidney, liver, and spleen” value ([10]; after 10 days, either concentration of the test compound, vs mice treated with fluconazole)?
A: less than or equal to one half the burdens in the same organs of mice treated with fluconazole

Q: What about the median survival ([10]; oral gavage once a day for 10 days, vehicle control 7 days, p=0.0018 log rank test) of the same compound?
A: 17.5 days

Q: With `Nc1nc(=O)[nH]cc1F` [5-flucytosine] as the compound, how does the “minimum inhibitory concentration (MIC) for known antifungal agents” value (“minimum inhibitory concentration (MIC)” below) [7] read?
A: within reported ranges

Q: For `C[C@@H]1[C@H](O)[C@@H](C)/C=C/C=C/C=C/C=C/C=C/C=C/C=C/[C@H](O[C@@H]2O[C@H](C)[C@@H](O)[C@H](N)[C@@H]2O)C[C@@H]2O[C@](O)(C[C@@H](O)C[C@@H](O)[C@H](O)CC[C@@H](O)C[C@@H](O)CC(=O)O[C@H]1C)C[C@H](O)[C@H]2C(=O)O` [amphotericin B], which “minimum inhibitory concentration (MIC)” value [7] is on record?
A: within reported ranges

Q: With `OC(Cn1cncn1)(Cn1cncn1)c1ccc(F)cc1F` [fluconazole] as the compound, how does the “minimum inhibitory concentration (MIC)” value [7] read?
A: within reported ranges

Q: For `C[C@@H]([C@H](N)C(=O)N[C@H](C(=O)O)[C@H]1O[C@@H](n2ccc(=O)[nH]c2=O)[C@H](O)[C@@H]1O)[C@H](O)c1ccc(O)cn1` [nikkomycin Z], which “minimum inhibitory concentration (MIC)” value [7] is on record?
A: within reported ranges

Q: With `NC(=O)OC[C@H](O)[C@@H](O)[C@H](N)C(=O)N[C@H](C(=O)O)[C@H]1O[C@@H](n2cc(C(=O)O)c(=O)[nH]c2=O)[C@H](O)[C@@H]1O` [polyoxin D] as the compound, how does the “minimum inhibitory concentration (MIC)” value [7] read?
A: within reported ranges

Q: Which MIC [8, 12] does the source give for `CN[C@H](CC(C)C)C(=O)N[C@H]1C(=O)N[C@@H](CC(N)=O)C(=O)N[C@H]2C(=O)N[C@H]3C(=O)N[C@H](C(=O)N[C@H](C(=O)O)c4cc(O)cc(O)c4-c4cc3ccc4O)[C@H](O)c3ccc(c(Cl)c3)Oc3cc2cc(c3O[C@@H]2O[C@H](CO)[C@@H](O)[C@H](O)[C@H]2O[C@H]2C[C@](C)(N)[C@H](O)[C@H](C)O2)Oc2ccc(cc2Cl)[C@H]1O` [vancomycin] here?
A: ~1 µg/mL (≈ 0.69 µM)

Q: For gentamicin, which MIC [8] is on record?
A: ~0.6 µg/mL
